The values that follow come from patent publication US20140243302A1, “BRIDGED BICYCLIC COMPOUNDS FOR THE TREATMENT OF BACTERIAL INFECTIONS” (priority 2011, published 2014).

Converted amounts (≈) assume the structure as drawn. Structures can show the parent of a compound that is named as a salt.

The subject of this experiment is Staphylococcus aureus Smith. Description: MIC assay, modified agar dilution (CLSI), S. aureus Smith. The following applies: agar dilution, 35° C., 16-20 hr, lowest concentration that completely inhibited growth; for MIC: Staphylococcus aureus, read-out: S_aureus_Smith_WT_MIC. It is filed as cell-based. The procedure, abridged: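 Strains were spotted at about 1×10^4 CFU onto compound-containing Mueller Hinton agar (two-fold series, 128-0.001 μg/mL), horse blood 5% added for pneumococcus and enterococcus. MIC read after 16-20 hr at 35 °C, following a modified CLSI agar dilution method.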

For the molecule `CON=C1COc2ccc(CNC34CCC(CCc5c(F)cnc6ccc(OC)nc56)(CC3)OC4)nc2N1` [Example 47, 6-((1-(2-(3-Fluoro-6-methoxy-1,5-naphthyridin-4-yl)ethyl)-2-oxabicyclo[2.2.2]octan-4-ylamino)methyl)-2H-pyrido[3,2-b][1,4]oxazin-3(4H)-one O-Methyl Oxime], the MIC was found to be 2 µg/mL (≈ 3.83 µM).

With `COc1ccc2ncc(F)c(CCC34CCC(NCc5cnc(N(C)C)nc5)(CC3)CO4)c2n1` [Example 85, 5-((1-(2-(3-Fluoro-6-methoxy-1,5-naphthyridin-4-yl)ethyl)-2-oxabicyclo[2.2.2]octan-4-ylamino)methyl)-N,N-dimethylpyrimidin-2-amine], the MIC is 0.125 µg/mL (≈ 0.268 µM).

As to `Cc1nc2ccccc2n(CCC23CCC(NCc4ccc5c(n4)NC(=O)CO5)(CC2)CO3)c1=O` [Example 114, 6-((1-(2-(3-Methyl-2-oxoquinoxalin-1(2H)-yl)ethyl)-2-oxabicyclo[2.2.2]octan-4-ylamino)methyl)-2H-pyrido[3,2-b][1,4]oxazin-3(4H)-one], the MIC was determined as 4 µg/mL (≈ 8.41 µM).

As to `COc1ccc2ncc(F)c(CCC34CCC(NCc5ccc6c(n5)NC(=O)C(C)(C)O6)(CC3)CO4)c2n1.Cl` [Example 99, 6-((1-(2-(3-Fluoro-6-methoxy-1,5-naphthyridin-4-yl)ethyl)-2-oxabicyclo[2.2.2]octan-4-ylamino)methyl)-2,2-dimethyl-2H-pyrido[3,2-b][1,4]oxazin-3(4H)-one], the MIC was determined as 0.25 µg/mL.

Turning to `NCCCCCOc1ccc2ncc(F)c(CCC34CCC(NCc5ccc6c(n5)NC(=O)CO6)(CC3)CO4)c2n1` [Example 41, 6-((1-(2-(6-(5-Aminopentyloxy)-3-fluoro-1,5-naphthyridin-4-yl)ethyl)-2-oxabicyclo[2.2.2]octan-4-ylamino)methyl)-2H-pyrido[3,2-b][1,4]oxazin-3(4H)-one], the MIC was found to be 0.5 µg/mL (≈ 0.885 µM).

Turning to `COc1ccc2ncc(=O)n(CCC34CCC(NCc5cc6ccccc6n(C)c5=O)(CC3)CO4)c2n1` [Example 123, 6-Methoxy-4-(2-(4-((1-methyl-2-oxo-1,2-dihydroquinolin-3-yl)methylamino)-2-oxabicyclo[2.2.2]octan-1-yl)ethyl)pyrido[3,2-b]pyrazin-3(4H)-one], the MIC was determined as 1 µg/mL (≈ 1.99 µM).

`COc1ccc2ncc(F)c(CCC34CCC(NCc5cc6c(Cl)cccc6n(C)c5=O)(CC3)CO4)c2n1` [Example 106, 5-Chloro-3-((1-(2-(3-fluoro-6-methoxy-1,5-naphthyridin-4-yl)ethyl)-2-oxabicyclo[2.2.2]octan-4-ylamino)methyl)-1-methylquinolin-2(1H)-one]: the MIC came to 1 µg/mL (≈ 1.86 µM).

`O=C1COc2ccc(CNC34CCC(CC(O)c5c(F)cnc6ccc(OCCCO)nc56)(CC3)OC4)nc2N1` (stereo not drawn) [Example 210, 1-(2-(3-Fluoro-6-(3-hydroxypropoxy)-1,5-naphthyridin-4-yl)-2-hydroxyethyl)-N-((3-oxo-3,4-dihydro-2H-pyrido[3,2-b][1,4]oxazin-6-yl)methyl)-2-oxabicyclo[2.2.2]octan-4-aminium chloride]: the MIC turned out to be 0.25 µg/mL.

Regarding `COc1ccc2ncc(Cl)c(CCC34CCC(NCc5ccc6c(c5)NC(=O)CO6)(CC3)CC4)c2n1` [Example 56, 6-((4-(2-(3-Chloro-6-methoxy-1,5-naphthyridin-4-yl)ethyl)bicyclo[2.2.2]octan-1-ylamino)methyl)-2H-benzo[b][1,4]oxazin-3(4H)-one], the MIC stood at 0.031 µg/mL (≈ 0.0611 µM).

Turning to `N#Cc1cnc2ccc(=O)n(CC(O)C34CCC(NCc5cc6c(cn5)OCCO6)(CC3)CO4)c2c1` (single isomer, unassigned; enantiomer a) [Example 159, 5-(2-(4-((2,3-Dihydro-[1,4]dioxino[2,3-c]pyridin-7-yl)methylamino)-2-oxabicyclo[2.2.2]octan-1-yl)-2-hydroxyethyl)-6-oxo-5,6-dihydro-1,5-naphthyridine-3-carbonitrile (Enantiomer A)], the MIC amounted to 2 µg/mL (≈ 4.09 µM).

For `COc1ccc2ncc(F)c(CCC34CCC(NCc5ccc6oc(=O)[nH]c6n5)(CC3)CO4)c2n1` [Example 107, 5-((1-(2-(3-Fluoro-6-methoxy-1,5-naphthyridin-4-yl)ethyl)-2-oxabicyclo[2.2.2]octan-4-ylamino)methyl)oxazolo[4,5-b]pyridin-2(3H)-one], the MIC came to 32 µg/mL (≈ 66.7 µM).

Regarding `COc1ccc2ncc(F)c(CCC34CCC(NCc5cc(Cl)c6c(c5)OCCO6)(CC3)CO4)c2n1` [Example 67, N-((8-Chloro-2,3-dihydrobenzo[b][1,4]dioxin-6-yl)methyl)-1-(2-(3-fluoro-6-methoxy-1,5-naphthyridin-4-yl)ethyl)-2-oxabicyclo[2.2.2]octan-4-amine], the MIC was determined as 0.031 µg/mL (≈ 0.0603 µM).

`O=C1COc2ccc(CNC34CCC(CCc5c(F)cnc6ccc(N7CC[C@H](O)C7)nc56)(CC3)OC4)nc2N1` [Example 294, (S)-6-((1-(2-(3-Fluoro-6-(3-hydroxypyrrolidin-1-yl)-1,5-naphthyridin-4-yl)ethyl)-2-oxabicyclo[2.2.2]octan-4-ylamino)methyl)-2H-pyrido[3,2-b][1,4]oxazin-3(4H)-one]: the MIC turned out to be 0.125 µg/mL (≈ 0.228 µM).

In turn, `COc1ccc2ncc(=O)n(CC(O)C34CCC(NCc5ccc6c(n5)NC(=O)CO6)(CC3)CO4)c2n1.Cl` (single isomer, unassigned) [Example 51b, 6-(((1-(1-hydroxy-2-(6-methoxy-3-oxopyrido[2,3-b]pyrazin-4(3H)-yl)ethyl)-2-oxabicyclo[2.2.2]octan-4-yl)amino)methyl)-2H-pyrido[3,2-b][1,4]oxazin-3(4H)-one hydrochloride] displayed a S_aureus_Smith_WT_MIC (Hydrochloride) of 0.0630 µg/mL.

As to `O=C1COc2ccc(CNC34CCC(CCn5c(=O)ccc6ncc(Br)cc65)(CC3)OC4)nc2N1` [Example 130, 6-((1-(2-(7-Bromo-2-oxo-1,5-naphthyridin-1(2H)-yl)ethyl)-2-oxabicyclo[2.2.2]octan-4-ylamino)methyl)-2H-pyrido[3,2-b][1,4]oxazin-3(4H)-one], the MIC was found to be 0.063 µg/mL (≈ 0.117 µM).

In the case of `COc1ccc2ncc(F)c(CCC34CCC(NCC5CCCCC5)(CC3)CO4)c2n1` [Example 70, N-(Cyclohexylmethyl)-1-(2-(3-fluoro-6-methoxy-1,5-naphthyridin-4-yl)ethyl)-2-oxabicyclo[2.2.2]octan-4-amine], the MIC amounted to 2 µg/mL (≈ 4.68 µM).

On to `COc1ccc2ncc(F)c(CCC34CCC(NCc5cn(C)c(=O)n(C)c5=O)(CC3)CO4)c2n1` [Example 94, 5-((1-(2-(3-Fluoro-6-methoxy-1,5-naphthyridin-4-yl)ethyl)-2-oxabicyclo[2.2.2]octan-4-ylamino)methyl)-1,3-dimethylpyrimidine-2,4(1H,3H)-dione], for which the MIC is greater than 16 µg/mL.

For the molecule `COc1ccc2ncc(=O)n(CCC34CCC(NCc5cc6c(cn5)OCCO6)(CC3)CO4)c2n1` [Example 122, 4-(2-(4-((2,3-Dihydro-[1,4]dioxino[2,3-c]pyridin-7-yl)methylamino)-2-oxabicyclo[2.2.2]octan-1-yl)ethyl)-6-methoxypyrido[3,2-b]pyrazin-3(4H)-one], the MIC came out at 0.063 µg/mL (≈ 0.131 µM).

In the case of `COc1ccc2ncc(O)c(CCC34CCC(NCc5ccc6c(n5)NC(=O)CO6)(CC3)CO4)c2n1` [Example 124, 6-(((1-(2-(3-Hydroxy-6-methoxy-1,5-naphthyridin-4-yl)ethyl)-2-oxabicyclo[2.2.2]octan-4-yl)amino)methyl)-2H-pyrido[3,2-b][1,4]oxazin-3(4H)-one], the MIC stood at 0.031 µg/mL (≈ 0.0631 µM).

For the molecule `COc1ccc2ncc(F)c(CCC34CCC(NCc5ccc6c(n5)NC(=O)CO6)(CC3)CO4)c2c1.Cl` [Example 125, 6-((1-(2-(3-Fluoro-6-methoxyquinolin-4-yl)ethyl)-2-oxabicyclo[2.2.2]octan-4-ylamino)methyl)-2H-pyrido[3,2-b][1,4]oxazin-3(4H)-one Hydrochloride], the MIC was determined as 0.016 µg/mL.

For `COc1ccc2ncc(F)c(CCC34CCC(NCc5ccc(N6CCCC6)cn5)(CC3)CO4)c2n1` [Example 63, 1-(2-(3-Fluoro-6-methoxy-1,5-naphthyridin-4-yl)ethyl)-N-((5-(pyrrolidin-1-yl)pyridin-2-yl)methyl)-2-oxabicyclo[2.2.2]octan-4-amine], the MIC is 0.25 µg/mL (≈ 0.509 µM).

In the case of `Cl.O=C1COc2ccc(CNC34CCC(CCN5C(=O)COc6cccnc65)(CC3)OC4)nc2N1` [Example 109, 6-((1-(2-(3-Oxo-2H-pyrido[3,2-b][1,4]oxazin-4(3H)-yl)ethyl)-2-oxabicyclo[2.2.2]octan-4-ylamino)methyl)-2H-pyrido[3,2-b][1,4]oxazin-3(4H)-one Hydrochloride], the MIC is 8 µg/mL.

For `COc1nc2c(CCC34CCC(NCc5ccc6c(n5)NC(=O)CO6)(CC3)CO4)c(F)cnc2cc1F` [Example 174, 6-[({1-[2-(3,7-Difluoro-6-methoxy-1,5-naphthyridin-4-yl)ethyl]-2-oxabicyclo[2.2.2]oct-4-yl}amino)methyl]-2H-pyrido[3,2-b][1,4]oxazin-3(4H)-one], the MIC was determined as 0.031 µg/mL (≈ 0.0606 µM).

In the case of `COc1ccc2ncc(C#N)c(CCC34CCC(NCc5cc6c(cn5)OCCO6)(CC3)CO4)c2n1` [Example 45, 4-(2-(4-((2,3-Dihydro-[1,4]dioxino[2,3-c]pyridin-7-yl)methylamino)-2-oxabicyclo[2.2.2]octan-1-yl)ethyl)-6-methoxy-1,5-naphthyridine-3-carbonitrile Hydrochloride], the MIC came to 0.031 µg/mL.

Take `COc1ccc2ncc(F)c(CCC34CCC(NCc5ccc6c(n5)NC(=O)CS6)(CC3)CO4)c2n1` [Example 155, 6-((1-(2-(3-Fluoro-6-methoxy-1,5-naphthyridin-4-yl)ethyl)-2-oxabicyclo[2.2.2]octan-4-ylamino)methyl)-2H-pyrido[3,2-b][1,4]thiazin-3(4H)-one]: the MIC came out at 0.016 µg/mL (≈ 0.0314 µM).

In the case of `O=C1COc2ccc(CNC34CCC(C(O)Cc5c(F)cnc6ccc(OCCCO)nc56)(CC3)OC4)nc2N1` (stereo not drawn) [Example 158, 6-{[(1-{2-[3-Fluoro-6-(3-hydroxypropoxy)-1,5-naphthyridin-4-yl]-1-hydroxyethyl}-2-oxabicyclo[2.2.2]oct-4-yl)amino]methyl}-2H-pyrido[3,2-b][1,4]oxazin-3(4H)-one], the MIC was determined as 0.125 µg/mL (≈ 0.226 µM).

As for `COc1ccc2ncc(F)c(C[C@@H](O)C34CCC(NCc5cc6c(cn5)OCCO6)(CC3)CC4)c2n1.Cl` (single isomer, unassigned) [Example 200], the MIC came to 0.75 µg/mL.
